Reference: the NIST ThermoML archive (doi:10.1016/j.jct.2017.12.017)
Values joined by “and” are separate entries in the source; they are usually repeats but may differ in a detail not shown here. Identical values can stand only once. ± gives the expanded uncertainty stated by the source.

Assay: mn = molality of the nth substance listed, in mol/kg
Conditions: 100 kPa, Liquid; for speed of sound: Frequency=3 MHz, Single path-length method; for mass density: Vibrating tube method

Nc1ccc(S(=O)(=O)Nc2nccs2)cc1 [N-(2-thiazolyl)sulfanilamide] + O
speed of sound (288.15 K, m1 = 0.001): 1466.6 ± 1.8 m/s | speed of sound (288.15 K, m1 = 0.005): 1467.2 ± 1.8 m/s | speed of sound (288.15 K, m1 = 0.01): 1468.5 ± 1.9 m/s | mass density (288.15 K, m1 = 0.001): 999.21 ± 0.49 kg/m3 | mass density (288.15 K, m1 = 0.005): 999.71 ± 0.49 kg/m3 | mass density (288.15 K, m1 = 0.01): 1000.27 ± 0.49 kg/m3 and 1000.33 ± 0.49 kg/m3 | speed of sound (293.15 K, m1 = 0.001): 1482.9 ± 1.9 m/s | speed of sound (293.15 K, m1 = 0.005): 1483.5 ± 1.9 m/s | speed of sound (293.15 K, m1 = 0.01): 1484.5 ± 1.9 m/s | mass density (293.15 K, m1 = 0.001): 998.28 ± 0.49 kg/m3 | mass density (293.15 K, m1 = 0.005): 998.79 ± 0.49 kg/m3 | mass density (293.15 K, m1 = 0.01): 999.36 ± 0.5 kg/m3 and 999.41 ± 0.49 kg/m3 | speed of sound (298.15 K, m1 = 0.001): 1497.1 ± 1.9 m/s | speed of sound (298.15 K, m1 = 0.005): 1497.7 ± 1.9 m/s | speed of sound (298.15 K, m1 = 0.01): 1498.7 ± 1.9 m/s | mass density (298.15 K, m1 = 0.001): 997.13 ± 0.49 kg/m3 | mass density (298.15 K, m1 = 0.005): 997.61 ± 0.49 kg/m3 | mass density (298.15 K, m1 = 0.01): 998.19 ± 0.5 kg/m3 and 998.23 ± 0.49 kg/m3 | speed of sound (303.15 K, m1 = 0.001): 1509.6 ± 1.9 m/s | speed of sound (303.15 K, m1 = 0.005): 1510 ± 1.9 m/s | speed of sound (303.15 K, m1 = 0.01): 1510.7 ± 1.9 m/s | mass density (303.15 K, m1 = 0.001): 995.71 ± 0.49 kg/m3 | mass density (303.15 K, m1 = 0.005): 996.18 ± 0.49 kg/m3 | mass density (303.15 K, m1 = 0.01): 996.81 ± 0.49 kg/m3 and 996.77 ± 0.49 kg/m3 | speed of sound (308.15 K, m1 = 0.001): 1520.2 ± 1.9 m/s | speed of sound (308.15 K, m1 = 0.005): 1520.6 ± 1.9 m/s | speed of sound (308.15 K, m1 = 0.01): 1521.7 ± 1.9 m/s | mass density (308.15 K, m1 = 0.001): 994.08 ± 0.49 kg/m3 | mass density (308.15 K, m1 = 0.005): 994.54 ± 0.49 kg/m3 | mass density (308.15 K, m1 = 0.01): 995.18 ± 0.49 kg/m3 and 995.14 ± 0.49 kg/m3
